Legend:
Assay in all cases: Bliss excess, mean over the matrix (fraction); higher = more synergy
[1] = system: 22RV1 (Prostate Carcinoma)
Summary of the method: (§1)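 Bliss excess equals the observed combination effect minus the expected value EA + EB − EA·EB, where EA and EB are the effects of each agent alone. Combination Emax is the second-highest inhibition within the matrix. Inhibition was scaled from CellTiter-Glo 2.0 luminescence, with 0 set by vehicle wells and 1 by blank wells, after 72 hours of two-drug dosing of cells plated in 1536-well plates.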

[2] = system: A204 (Rhabdomyosarcoma)
Summary of the method: as §1

[3] = system: A2780 (Ovarian Carcinoma)
Summary of the method: as §1

[4] = system: CA46 (Burkitt's Lymphoma)
Summary of the method: as §1

[5] = system: DMS-53 (Small Cell Lung Carcinoma)
Summary of the method: as §1

[6] = system: EPLC-272H (Other Solid Carcinomas)
Summary of the method: as §1

[7] = system: GA-10 (Burkitt's Lymphoma)
Summary of the method: as §1

[8] = system: HCC1395 (Breast Carcinoma)
Summary of the method: as §1

[9] = system: HCC1428 (Breast Carcinoma)
Summary of the method: as §1

[10] = system: HCC70 (Breast Carcinoma)
Summary of the method: as §1

[11] = system: JHU-022 (Oral Cavity Carcinoma)
Summary of the method: as §1

[12] = system: JIMT-1 (Breast Carcinoma)
Summary of the method: as §1

[13] = system: Jurkat (T-Lymphoblastic Leukemia)
Summary of the method: as §1

[14] = system: LS-411N (Colorectal Carcinoma)
Summary of the method: as §1

[15] = system: NCI-H2087 (Lung Adenocarcinoma)
Summary of the method: as §1

[16] = system: NCI-H2228 (Lung Adenocarcinoma)
Summary of the method: as §1

[17] = system: OACp4C (Esophageal Adenocarcinoma)
Summary of the method: as §1

[18] = system: RH-41 (Rhabdomyosarcoma)
Summary of the method: as §1

[19] = system: SW620 (Colorectal Carcinoma)
Summary of the method: as §1

[20] = system: WM1552C (Melanoma)
Summary of the method: as §1

Row | Compound | Bliss excess [1] | Bliss excess [2] | Bliss excess [3] | Bliss excess [4] | Bliss excess [5] | Bliss excess [6] | Bliss excess [7] | Bliss excess [8] | Bliss excess [9] | Bliss excess [10] | Bliss excess [11] | Bliss excess [12] | Bliss excess [13] | Bliss excess [14] | Bliss excess [15] | Bliss excess [16] | Bliss excess [17] | Bliss excess [18] | Bliss excess [19] | Bliss excess [20]
1 | COc1nnc2ccc(N3CCC(c4ccc(OCCN5CCN(C)C(=O)[C@H]5C)cc4)CC3)nn12 [AZD5153] + CCN(CCO)CCCOc1ccc2c(Nc3cc(CC(=O)Nc4cccc(F)c4)[nH]n3)ncnc2c1 [AZD2811] (first compound max 1 µM, 7x7, partner max 1 µM) | -0.0252 | -0.0849 | -0.0295 | -0.0088 | 0.0175 | -0.0387 | -0.122 | -0.0005 | -0.0173 | -0.0734 | -0.0601 | -0.0113 | 0.0305 | -0.0233 | -0.0645 | -0.0285 | -0.062 | 0.021 | -0.0002 | -0.0615
2 | COc1nnc2ccc(N3CCC(c4ccc(OCCN5CCN(C)C(=O)[C@H]5C)cc4)CC3)nn12 [AZD5153] + C[C@@H]1COCCN1C2=NC(=NC(=C2)C3(CC3)[S@](=N)(=O)C)C4=C5C=CNC5=NC=C4 [AZD6738] (first compound max 1 µM, 7x7, partner max 10 µM) | -0.0019 | 0.042 | -0.0058 | -0.0051 | 0.037 | -0.0629 | -0.0177 | -0.0241 | 0.0209 | 0.015 | -0.0134 | 0.0465 | 0.0601 | 0.0754 | 0.0404 | -0.0179 | 0.0085 | 0.0514 | 0.0276 | -0.0783
3 | COc1nnc2ccc(N3CCC(c4ccc(OCCN5CCN(C)C(=O)[C@H]5C)cc4)CC3)nn12 [AZD5153] + Cc1c2c(nn1C)CSCc1cc(n(C)n1)CSc1cc(c3ccccc3c1)OCCCc1c(C(=O)O)n(C)c3c-2c(Cl)ccc13 [AZD5991] (first compound max 1 µM, 7x7, partner max 1 µM) | 0.0107 | -0.0116 | -0.0324 | -0.0502 | 0.007 | -0.026 | -0.0598 | -0.0112 | -0.0587 | 0.0638 | -0.0703 | 0.0155 | 0.0006 | 0.0068 | -0.0328 | -0.0261 | 0.0438 | 0.012 | -0.0457 | -0.0694
4 | COc1nnc2ccc(N3CCC(c4ccc(OCCN5CCN(C)C(=O)[C@H]5C)cc4)CC3)nn12 [AZD5153] + Cn1cnc2c(F)c(Nc3ccc(Br)cc3Cl)c(C(=O)NOCCO)cc21 [Selumetinib] (first compound max 1 µM, 7x7, partner max 10 µM) | 0.0239 | -0.0838 | -0.0118 | -0.0282 | -0.0043 | 0.0173 | -0.0813 | -0.024 | 0.0137 | 0.0982 | -0.0807 | -0.0082 | -0.0326 | 0.0602 | -0.0192 | -0.0535 | 0.101 | -0.0176 | -0.0083 | -0.063
5 | Cc1c2c(nn1C)CSCc1cc(n(C)n1)CSc1cc(c3ccccc3c1)OCCCc1c(C(=O)O)n(C)c3c-2c(Cl)ccc13 [AZD5991] + C1CN(CCC1(C(=O)N[C@@H](CCO)C2=CC=C(C=C2)Cl)N)C3=NC=NC4=C3C=CN4 [Capivasertib] (first compound max 1 µM, 7x7, partner max 3 µM) | 0.0404 | -0.0305 | -0.0233 | 0.0205 | 0.0168 | 0.0341 | 0.0138 | -0.003 | 0.0136 | 0.0761 | -0.0273 | -0.0056 | 0.0115 | -0.0038 | -0.0295 | -0.0225 | 0.019 | -0.0334 | -0.0325 | -0.004
6 | Cc1c2c(nn1C)CSCc1cc(n(C)n1)CSc1cc(c3ccccc3c1)OCCCc1c(C(=O)O)n(C)c3c-2c(Cl)ccc13 [AZD5991] + C=CCn1c(=O)c2cnc(Nc3ccc(N4CCN(C)CC4)cc3)nc2n1-c1cccc(C(C)(C)O)n1 [AZD1775] (first compound max 1 µM, partner max 1 µM) | -0.003 | 0.0348 | -0.0313 | -0.0627 | 0.0326 | 0.0188 | -0.053 | -0.0172 | -0.0407 | 0.0278 | -0.0072 | 0.0464 | -0.0066 | 0.0376 | -0.0067 | 0.0114 | 0.0186 | 0.0029 | -0.0272 | -0.0651
7 | Cc1c2c(nn1C)CSCc1cc(n(C)n1)CSc1cc(c3ccccc3c1)OCCCc1c(C(=O)O)n(C)c3c-2c(Cl)ccc13 [AZD5991] + CC1(C)CCC(CN2CCN(c3ccc(C(=O)NS(=O)(=O)c4ccc(NCC5CCOCC5)c([N+](=O)[O-])c4)c(Oc4cnc5[nH]ccc5c4)c3)CC2)=C(c2ccc(Cl)cc2)C1 [Venetoclax] (first compound max 1 µM, 7x7, partner max 1 µM) | -0.0149 | -0.0226 | 0.0777 | -0.02 | 0.159 | -0.015 | -0.0658 | -0.019 | 0.0221 | 0.0042 | -0.0291 | -0.0155 | 0.0116 | 0 | -0.0304 | -0.0122 | 0.13 | 0.0582 | -0.037 | -0.115
8 | Cc1c2c(nn1C)CSCc1cc(n(C)n1)CSc1cc(c3ccccc3c1)OCCCc1c(C(=O)O)n(C)c3c-2c(Cl)ccc13 [AZD5991] + CCN(CCO)CCCOc1ccc2c(Nc3cc(CC(=O)Nc4cccc(F)c4)[nH]n3)ncnc2c1 [AZD2811] (first compound max 1 µM, 7x7, partner max 1 µM) | -0.0004 | 0.0358 | 0.0561 | 0.0251 | 0.0525 | 0.0705 | -0.0092 | 0.0432 | 0.0469 | -0.0219 | 0.0039 | 0.0203 | 0.0119 | 0.0206 | -0.0144 | 0.0161 | 0.0088 | 0.0183 | 0.0591 | -0.0095
9 | Cc1c2c(nn1C)CSCc1cc(n(C)n1)CSc1cc(c3ccccc3c1)OCCCc1c(C(=O)O)n(C)c3c-2c(Cl)ccc13 [AZD5991] + C[C@@H]1COCCN1C2=NC(=NC(=C2)C3(CC3)[S@](=N)(=O)C)C4=C5C=CNC5=NC=C4 [AZD6738] (first compound max 1 µM, 7x7, partner max 10 µM) | 0.0449 | 0.0507 | -0.0032 | -0.0252 | 0.0165 | 0.0151 | -0.018 | 0.0307 | -0.0045 | -0.0069 | -0.0118 | 0.0789 | -0.0178 | 0.0069 | -0.0396 | -0.0302 | 0.0108 | 0.014 | 0.0191 | -0.0084
10 | Cc1c2c(nn1C)CSCc1cc(n(C)n1)CSc1cc(c3ccccc3c1)OCCCc1c(C(=O)O)n(C)c3c-2c(Cl)ccc13 [AZD5991] + C[C@@H](Nc1cc(F)cc(F)c1)c1cc(C(=O)N(C)C)cc2c(=O)cc(N3CCOCC3)oc12 [AZD8186] (first compound max 1 µM, 7x7, partner max 3 µM) | -0.0029 | -0.0051 | -0.0049 | -0.0611 | 0.0267 | 0.0238 | 0.0321 | 0.0527 | -0.009 | 0.0937 | -0.0211 | -0.0492 | -0.0077 | 0.0064 | -0.0168 | -0.0361 | 0.0153 | -0.0114 | -0.0298 | 0.0005
11 | Cc1c2c(nn1C)CSCc1cc(n(C)n1)CSc1cc(c3ccccc3c1)OCCCc1c(C(=O)O)n(C)c3c-2c(Cl)ccc13 [AZD5991] + Cc1cc2ncnn2cc1Nc1ncc2c(n1)n(C1CCOCC1)c(=O)n2C [AZD7648] (first compound max 1 µM, 7x7, partner max 10 µM) | -0.0528 | -0.0466 | -0.0224 | 0.0187 | 0.0011 | -0.0575 | -0.0508 | -0.0497 | 0.0018 | -0.052 | -0.028 | -0.0541 | -0.0234 | -0.0492 | -0.0221 | -0.0413 | 0.008 | -0.0443 | -0.0421 | -0.0762
12 | Cc1c2c(nn1C)CSCc1cc(n(C)n1)CSc1cc(c3ccccc3c1)OCCCc1c(C(=O)O)n(C)c3c-2c(Cl)ccc13 [AZD5991] + Cn1cnc2c(F)c(Nc3ccc(Br)cc3Cl)c(C(=O)NOCCO)cc21 [Selumetinib] (first compound max 1 µM, 7x7, partner max 3 µM) | 0.0253 | -0.0355 | -0.0361 | -0.0195 | 0.0572 | 0.0197 | 0.0086 | 0.0152 | -0.0185 | 0.099 | 0.0466 | -0.014 | 0.0294 | 0.0493 | 0.0282 | 0.0038 | 0.143 | -0.0293 | 0.0005 | -0.089
13 | C[C@@H]1COCCN1c1cc(C2([S@](C)(=N)=O)CC2)nc(-c2ccnc3[nH]ccc23)n1 [AZD6738] + O=C(c1cc(Cc2n[nH]c(=O)c3ccccc23)ccc1F)N1CCN(C(=O)C2CC2)CC1 [Olaparib] (first compound max 10 µM, 7x7, partner max 10 µM) | 0.0117 | -0.0075 | 0.006 | 0.0138 | -0.002 | -0.0682 | -0.0726 | 0.0255 | -0.003 | 0.0085 | -0.0489 | -0.0247 | 0.0592 | -0.105 | -0.0008 | -0.0305 | -0.0281 | -0.0201 | 0.0218 | 0.0105
14 | NC1(C(=O)N[C@@H](CCO)c2ccc(Cl)cc2)CCN(c2ncnc3[nH]ccc23)CC1 [Capivasertib] + CC(=O)c1c(C)c2cnc(Nc3ccc(N4CCNCC4)cn3)nc2n(C2CCCC2)c1=O [Palbociclib] (first compound max 10 µM, 7x7, partner max 10 µM) | 0.0306 | -0.0496 | -0.0266 | 0.0033 | 0.0477 | -0.0065 | -0.0029 | 0.0116 | -0.0201 | 0.0198 | -0.0186 | -0.0115 | 0.0314 | -0.0119 | -0.03 | -0.0216 | -0.0239 | -0.047 | -0.019 | 0.0025

From the supplement of paper PMC11061612
